Tests used:
cotton = assay: Test G preemergence test; format: in vivo, Gossypium hirsutum; details: scale 0 to 100
yellow nutsedge = assay: Test G preemergence test; format: in vivo, Cyperus esculentus; details: scale 0 to 100
windgrass = assay: Test C pre-/postemergence test; format: in vivo, Apera spica-venti; details: Postemergence; for Plant response rating, Windgrass: scale 0 to 100, 0 no effect, 100 complete control
Russian thistle = assay: Test F preemergence test; format: in vivo, Salsola kali; details: scale 0 to 100
Text: Seeds of plant species selected from bermudagrass (Cynodon dactylon), Surinam grass (Brachiaria decumbens), large crabgrass (Digitaria sanguinalis), green foxtail (Setaria viridis), goosegrass (Eleusine indica), johnsongrass (Sorghum halepense), kochia (Kochia scoparia), pitted morningglory (Ipomoea lacunosa), purple nutsedge (Cyperus rotundus), common ragweed (Ambrosia elation), mustard (Brassica nigra), guineagrass (Panicum maximum), […] (Paspalum dilatatum), barnyardgrass (Echinochloa crus-galli), southern sandbur (Cenchrus echinatus), common sowthistle (Sonchus oleraceous), prickly […] spinosa), Italian ryegrass (Lolium multiflorum), common purslane (Portulaca oleracea), broadleaf signalgrass (Brachiaria platyphylla), common groundsel (Senecio vulgaris), common chickweed (Stellaria media), Virginia dayflower (Commelina virginica), annual bluegrass (Poa annua), naked crabgrass (Digitaria nuda), […] cochinchinensis), quackgrass (Elytrigia repens), Canada horseweed (Conyza canadensis), field bindweed (Convolvulus arvensis), […] (Bidens bipinnata), common mallow (Malva sylvestris), Russian thistle (Salsola kali), and sugarcane (Saccharum officinarum) were planted and treated preemergence with test chemicals formulated in a non-phytotoxic solvent mixture which included a surfactant. At a different time, sugarcane was treated with postemergence applications of some of the test chemicals formulated in the same manner. Plants were approximately 3- to 4-leaf stage for the postemergence treatments. Treated plants and controls were maintained in a greenhouse for 14 to 21 days, after which time all species were compared to controls and visually evaluated. […] A dash (-) response means no test result.

chickweed = assay: Test C postemergence test; format: in vivo, Stellaria media; details: for Plant response rating, Chickweed: scale 0 to 100, 0 no effect, 100 complete control
Summary of the method: (§1)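 Postemergence sprays of formulated test chemicals on plants 2 to 18 cm tall (1- to 4-leaf stage). Greenhouse hold for 13 to 15 days, then visual rating of each species against untreated controls; dash means no test result.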

millet foxtail = assay: Test G preemergence test; format: in vivo, Setaria italica; details: scale 0 to 100
common sowthistle = assay: Test F preemergence test; format: in vivo, Sonchus oleraceous; details: scale 0 to 100
Summary of the method: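 Visual ratings relative to controls, taken after 14 to 21 days in a greenhouse. Test chemicals, formulated in a surfactant-containing non-phytotoxic solvent mixture, were applied preemergence to sown seeds or postemergence to sugarcane plants.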

littleseed canarygrass = assay: Test D preemergence test; format: in vivo, Phalaris minor; details: scale 0 to 100
Text: (§2) Seeds of plant species selected from annual bluegrass (Poa annua), blackgrass (Alopecurus myosuroides), downy bromegrass (Bromus tectorum), field violet (Viola arvensis), green foxtail (Setaria viridis), Italian ryegrass (Lolium multiflorum), littleseed canarygrass (Phalaris minor), spring wheat (Triticum aestivum), wild oat (Avena fatua), […]), winter barley (Hordeum vulgare), and winter wheat (Triticum aestivum) were planted and treated preemergence with test chemicals formulated in a non-phytotoxic solvent mixture which included a surfactant. […] A dash (-) response means no test result.

winter barley [1] = assay: Test C postemergence test; format: in vivo, Hordeum vulgare; details: for Plant response rating, Barley: scale 0 to 100, 0 no effect, 100 complete control
Summary of the method: as §1

field sandbur = assay: Test G preemergence test; format: in vivo, Cenchrus incertus; details: scale 0 to 100
canarygrass = assay: Test C postemergence test; format: in vivo, Phalaris minor; details: for Plant response rating, Canarygrass: scale 0 to 100, 0 no effect, 100 complete control
Summary of the method: as §1

winter barley [2] = assay: Test D preemergence test; format: in vivo, Hordeum vulgare
Text: as §2

[3] = Preemergence, 62 g ai/ha, scale 0 to 100
[4] = Preemergence, 125 g ai/ha, scale 0 to 100
[5] = Preemergence, 31 g ai/ha, scale 0 to 100
[6] = preemergence, 250 g ai/ha, scale 0 (no effect) to 100 (complete control)

Cc1cc[n+]([O-])c(S(=O)(=O)Cc2c(C(F)(F)F)nn(C)c2OC(F)F)c1 [Compound 2]
Plant response rating, Cotton (cotton; 31 g ai/ha): 0 | Plant response rating, Cotton (cotton; 62 g ai/ha): 0 | Plant response rating, Cotton (cotton; 125 g ai/ha): 0 | Plant response rating, Cotton (cotton; 250 g ai/ha): 0 | Plant response rating, Nutsedge, Yellow (yellow nutsedge; 31 g ai/ha): 0 | Plant response rating, Nutsedge, Yellow (yellow nutsedge; 62 g ai/ha): 0 | Plant response rating, Nutsedge, Yellow (yellow nutsedge; 125 g ai/ha): 35 | Plant response rating, Nutsedge, Yellow (yellow nutsedge; 250 g ai/ha): 75 | Plant response rating (0 to 100), Windgrass (windgrass; 31 g ai/ha): 0 | Plant response rating (0 to 100), Windgrass (windgrass; 62 g ai/ha): 10 | Plant response rating, Windgrass (windgrass; 125 g ai/ha): 50 | Plant response rating, Windgrass (windgrass; 250 g ai/ha): 70 | Plant response rating, Russian Thistle (Russian thistle; 8 g ai/ha, preemergence): 0 | Plant response rating, Russian Thistle (Russian thistle; Preemergence, 16 g ai/ha): 0 | Plant response rating, Russian Thistle (Russian thistle; Preemergence, 31 g ai/ha): 0 | Plant response rating (0 to 100), Chickweed (chickweed; 31 g ai/ha): 0 | Plant response rating, Chickweed (chickweed; 62 g ai/ha): 0 | Plant response rating, Chickweed (chickweed; 125 g ai/ha): 5 | Plant response rating, Chickweed (chickweed; 250 g ai/ha): 80 | Plant response rating, Foxtail, Millet (millet foxtail; 31 g ai/ha): 0 | Plant response rating, Foxtail, Millet (millet foxtail; 62 g ai/ha): 100 | Plant response rating, Foxtail, Millet (millet foxtail; 125 g ai/ha): 100 | Plant response rating, Foxtail, Millet (millet foxtail; 250 g ai/ha): 100 | Plant response rating, Sowthistle (common sowthistle; 8 g ai/ha, preemergence): 0 | Plant response rating, Sowthistle (common sowthistle; 16 g ai/ha, preemergence): 0 | Sowthistle plant response rating (common sowthistle; 62 g ai/ha, Preemergence): 100 | Plant response rating, Sowthistle (common sowthistle; Preemergence, 31 g ai/ha): 60 | Plant response rating, Canarygrass (littleseed canarygrass; 31 g ai/ha): 0 | Plant response rating, Canarygrass (littleseed canarygrass; 62 g ai/ha): 60 | Plant response rating, Canarygrass (littleseed canarygrass; 125 g ai/ha): 100 | Plant response rating, Canarygrass (littleseed canarygrass; 250 g ai/ha): 100 | Plant response rating (0 to 100), Barley (winter barley [1]; 31 g ai/ha): 0 | Plant response rating, Barley (winter barley [1]; 62 g ai/ha): 0 | Plant response rating, Barley (winter barley [1]; 125 g ai/ha): 0 | Plant response rating, Barley (winter barley [1]; 250 g ai/ha): 0 | Plant response rating, Sandbur (field sandbur; 31 g ai/ha): 0 | Plant response rating, Sandbur (field sandbur; 62 g ai/ha): 0 | Plant response rating, Sandbur (field sandbur; 125 g ai/ha): 85 | Plant response rating, Sandbur (field sandbur; 250 g ai/ha): 100 | Plant response rating (0 to 100), Canarygrass (canarygrass; 31 g ai/ha): 0 | Plant response rating, Canarygrass (canarygrass; 62 g ai/ha): 0 | Plant response rating, Canarygrass (canarygrass; 125 g ai/ha): 0 | Plant response rating, Canarygrass (canarygrass; 250 g ai/ha): 0 | Plant response rating, Barley (winter barley [2]; [3]): 0 | Plant response rating, Barley (winter barley [2]; [4]): 10 | Plant response rating, Barley (winter barley [2]; [5]): 0 | Plant response rating, Barley (winter barley [2]; [6]): 10

Cc1cc[n+]([O-])c(S(=O)(=O)C(Cl)c2c(C(F)(F)F)nn(C)c2Cl)c1 (racemic) [Compound 22]
Plant response rating, Cotton (cotton; 31 g ai/ha): 0 | Plant response rating, Cotton (cotton; 62 g ai/ha): 0 | Plant response rating, Cotton (cotton; 125 g ai/ha): 0 | Plant response rating, Cotton (cotton; 250 g ai/ha): 0 | Plant response rating, Nutsedge, Yellow (yellow nutsedge; 31 g ai/ha): 0 | Plant response rating, Nutsedge, Yellow (yellow nutsedge; 62 g ai/ha): 0 | Plant response rating, Nutsedge, Yellow (yellow nutsedge; 125 g ai/ha): 0 | Plant response rating, Nutsedge, Yellow (yellow nutsedge; 250 g ai/ha): 45 | Russian Thistle plant response rating (Russian thistle; 125 g ai/ha, preemergence): 100 | Plant response rating, Foxtail, Millet (millet foxtail; 31 g ai/ha): 95 | Plant response rating, Foxtail, Millet (millet foxtail; 62 g ai/ha): 95 | Plant response rating, Foxtail, Millet (millet foxtail; 125 g ai/ha): 95 | Plant response rating, Foxtail, Millet (millet foxtail; 250 g ai/ha): 95 | Sowthistle plant response rating (common sowthistle; 62 g ai/ha, Preemergence): 90 | Sowthistle plant response rating (common sowthistle; 125 g ai/ha, preemergence): 100 | Plant response rating, Sowthistle (common sowthistle; Preemergence, 31 g ai/ha): 90 | Plant response rating, Canarygrass (littleseed canarygrass; 31 g ai/ha): 0 | Plant response rating, Canarygrass (littleseed canarygrass; 62 g ai/ha): 15 | Plant response rating, Canarygrass (littleseed canarygrass; 125 g ai/ha): 75 | Plant response rating, Canarygrass (littleseed canarygrass; 250 g ai/ha): 100 | Plant response rating, Sandbur (field sandbur; 31 g ai/ha): 15 | Plant response rating, Sandbur (field sandbur; 62 g ai/ha): 60 | Plant response rating, Sandbur (field sandbur; 125 g ai/ha): 85 | Plant response rating, Sandbur (field sandbur; 250 g ai/ha): 100 | Plant response rating, Barley (winter barley [2]; [3]): 0 | Plant response rating, Barley (winter barley [2]; [4]): 0 | Plant response rating, Barley (winter barley [2]; [5]): 0 | Plant response rating, Barley (winter barley [2]; [6]): 0

— US20100298141A1, “SUBSTITUTED PYRIDINE N-OXIDE HERBICIDES” (E. I. DU PONT DE NEMOURS AND COMPANY, priority 2007, published 2010)
